Results: patent US20090062294A1, “HETEROARYL-SUBSTITUTED UREA MODULATORS OF FATTY ACID AMIDE HYDROLASE” (priority 2007, published 2009)
pIC50: −log10 of the molar value. Structures can show the parent of a compound that is named as a salt.

What was measured:
FAAH = target: T1, FAAH (Homo sapiens, UniProt O00519); test: Assay Method 1: FAAH assay, 3H-anandamide hydrolysis in homogenate of T84 cells or SK-N-MC cells transfected with human FAAH; type: biochemical; settings: average of results, > = solubility limit or highest concentration tested
T1 sequence (O00519 1-579): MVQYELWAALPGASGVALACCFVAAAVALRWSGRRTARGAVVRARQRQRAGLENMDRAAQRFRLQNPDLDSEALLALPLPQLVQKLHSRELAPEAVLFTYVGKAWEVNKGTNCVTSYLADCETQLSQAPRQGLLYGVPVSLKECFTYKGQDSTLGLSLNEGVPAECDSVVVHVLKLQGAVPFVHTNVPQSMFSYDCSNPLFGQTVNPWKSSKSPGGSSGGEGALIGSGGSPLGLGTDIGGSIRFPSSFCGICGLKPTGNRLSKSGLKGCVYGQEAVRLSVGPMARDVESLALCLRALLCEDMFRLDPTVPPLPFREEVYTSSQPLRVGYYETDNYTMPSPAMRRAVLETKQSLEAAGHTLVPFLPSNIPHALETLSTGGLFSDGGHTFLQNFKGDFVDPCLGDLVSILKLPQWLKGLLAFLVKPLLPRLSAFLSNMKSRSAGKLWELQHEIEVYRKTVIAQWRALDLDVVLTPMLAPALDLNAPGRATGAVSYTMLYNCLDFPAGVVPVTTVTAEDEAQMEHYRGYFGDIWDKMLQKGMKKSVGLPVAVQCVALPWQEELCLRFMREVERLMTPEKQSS
In short: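 Homogenates of T84 cells or of SK-N-MC cells stably transfected with human FAAH (G418-selected) were prepared in pH 9 Tris/EDTA/glycerol/Triton buffer. They were incubated with compound and 80 nM final ^3H-anandamide for 1 h at rt. Released ^3H-ethanolamine was separated on activated charcoal and counted by scintillation.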

rat FAAH = target: T2, rat FAAH (Rattus norvegicus, UniProt P97612); test: Assay Method 2: FAAH assay, 3H-anandamide hydrolysis in homogenate of SK-N-MC cells transfected with rat FAAH; type: biochemical; settings: average of results, > = solubility limit or highest concentration tested
T2 sequence (P97612 1-579): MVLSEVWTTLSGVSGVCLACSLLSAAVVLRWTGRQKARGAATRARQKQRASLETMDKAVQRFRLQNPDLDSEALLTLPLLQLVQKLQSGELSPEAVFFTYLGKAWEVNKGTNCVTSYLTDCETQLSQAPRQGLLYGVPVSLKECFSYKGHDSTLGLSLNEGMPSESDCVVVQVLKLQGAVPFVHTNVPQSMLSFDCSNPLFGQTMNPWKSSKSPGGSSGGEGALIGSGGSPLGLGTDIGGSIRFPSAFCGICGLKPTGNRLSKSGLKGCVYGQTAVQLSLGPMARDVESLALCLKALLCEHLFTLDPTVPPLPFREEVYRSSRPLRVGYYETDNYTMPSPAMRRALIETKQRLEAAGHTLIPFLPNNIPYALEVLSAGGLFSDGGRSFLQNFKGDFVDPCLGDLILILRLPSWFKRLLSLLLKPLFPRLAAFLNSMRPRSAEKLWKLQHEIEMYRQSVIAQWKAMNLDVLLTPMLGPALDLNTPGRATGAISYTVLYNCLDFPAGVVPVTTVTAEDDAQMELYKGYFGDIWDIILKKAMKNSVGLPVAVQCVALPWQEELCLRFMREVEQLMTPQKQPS
In short: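 Homogenate of SK-N-MC cells stably transfected with rat FAAH cDNA (G418-selected clones) in pH 9 Tris/EDTA/glycerol/Triton buffer. Incubated with compound and 80 nM final [3H]-anandamide for 1 h at rt. Released [3H]-ethanolamine separated from substrate on activated charcoal filters and counted by scintillation.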

pIC50 (FAAH)	pIC50 (rat FAAH)	SMILES
6.66	5.40	Cc1cc(NC(=O)N2CCN(Cc3cccc(Oc4ccc(Cl)cc4)c3)CC2)n[nH]1 [Example 194, 4-[3-(4-Chlorophenoxy)benzyl]-N-(5-methyl-1H-pyrazol-3-yl)piperazine-1-carboxamide]
6.96	6.51	O=C(Nc1cccnn1)N1CCN(Cc2ccc(Br)c(Br)c2)CC1 [Example 195, 4-(3,4-Dibromobenzyl)-N-pyridazin-3-ylpiperazine-1-carboxamide]
5.22	5.80	O=C(Nc1cccnn1)N1CCN(Cc2ccc3c(c2)OC(F)(F)O3)CC1 [Example 196, 4-[(2,2-Difluoro-1,3-benzodioxol-5-yl)methyl]-N-pyridazin-3-ylpiperazine-1-carboxamide]
5.89	5.05	O=C(Nc1cccnn1)N1CCN(Cc2cnc3ccccc3c2)CC1 [Example 197, N-Pyridazin-3-yl-4-(quinolin-3-ylmethyl)piperazine-1-carboxamide]
6.41	5.22	O=C(Nc1cccnn1)N1CCN(Cc2ccc3ccccc3n2)CC1 [Example 198, N-Pyridazin-3-yl-4-(quinolin-2-ylmethyl)piperazine-1-carboxamide]
6.55	6.23	O=C(Nc1cccnn1)N1CCN(Cc2ccc(Cl)c(Cl)c2)CC1 [Example 199, 4-(3,4-Dichlorobenzyl)-N-pyridazin-3-ylpiperazine-1-carboxamide]
7.42	6.30	O=C(Nc1cccnn1)N1CCN(Cc2ccc3ccccc3c2)CC1 [Example 200, 4-(Naphthalen-2-ylmethyl)-N-pyridazin-3-ylpiperazine-1-carboxamide]
< 5.00	< 5.00	O=C(Nc1cccnn1)N1CCN(Cc2ccc3[nH]ccc3c2)CC1 [Example 201, 4-(1H-Indol-5-ylmethyl)-N-pyridazin-3-ylpiperazine-1-carboxamide]
7.35	7.07	O=C(Nc1cccc2nsnc12)N1CCN(Cc2cccc(C#Cc3ccccc3)c2)CC1 [Example 202, N-2,1,3-Benzothiadiazol-4-yl-4-{[3-(phenylethynyl)phenyl]methyl}-piperazine-1-carboxamide]
6.68	6.46	O=C(Nc1cccc2nonc12)N1CCN(Cc2cccc(C#Cc3ccccc3)c2)CC1 [Example 203, N-2,1,3-Benzoxadiazol-4-yl-4-{[3-(phenylethynyl)phenyl]methyl}-piperazine-1-carboxamide]
7.85	7.49	O=C(Nc1noc2ccccc12)N1CCN(Cc2cccc(Oc3ccc(C(F)(F)F)c(Cl)c3)c2)CC1 [Example 204, 4-[3-(3-Chloro-4-trifluoromethyl-phenoxy)-benzyl]-piperazine-1-carboxylic acid benzo[d]isoxazol-3-ylamide trifluoroacetic acid salt]
6.97	6.65	O=C(Nc1noc2ccccc12)N1CCN(Cc2cccc(Oc3ccc(Cl)c(C(F)(F)F)c3)c2)CC1 [Example 205, 4-[3-(4-Chloro-3-trifluoromethyl-phenoxy)-benzyl]-piperazine-1-carboxylic acid benzo[d]isoxazol-3-ylamide trifluoroacetic acid salt]
7.96	7.68	O=C(Nc1noc2ccccc12)N1CCN(Cc2cccc(Oc3ccc(Cl)c(F)c3)c2)CC1 [Example 206, 4-[3-(4-Chloro-3-fluoro-phenoxy)-benzyl]-piperazine-1-carboxylic acid benzo[d]isoxazol-3-ylamide]
7.47	7.34	O=C(Nc1noc2ccccc12)N1CCN(Cc2cccc(Oc3ccc(F)c(Cl)c3)c2)CC1 [Example 207, 4-[3-(3-Chloro-4-fluoro-phenoxy)-benzyl]-piperazine-1-carboxylic acid benzo[d]isoxazol-3-ylamide]
7.68	7.77	O=C(Nc1noc2ccccc12)N1CCN(Cc2cccc(Oc3ccc(F)cc3)c2)CC1 [Example 208, 4-[3-(4-Fluoro-phenoxy)-benzyl]-piperazine-1-carboxylic acid benzo[d]isoxazol-3-ylamide]
8.05	8.70	CCCCc1ccc(Oc2cccc(CN3CCN(C(=O)Nc4noc5ccccc45)CC3)c2)cc1 [Example 209, 4-[3-(4-Butyl-phenoxy)-benzyl]-piperazine-1-carboxylic acid benzo[d]isoxazol-3-ylamide]
5.76	5.94	O=C(Nc1cnccn1)N1CCN(Cc2ccc3c(c2)OC(F)(F)O3)CC1 [Example 210, 4-[(2,2-Difluoro-1,3-benzodioxol-5-yl)methyl]-N-pyrazin-2-ylpiperazine-1-carboxamide]
5.52	< 5.00	O=C(Nc1cnccn1)N1CCN(Cc2ccc3c(c2)OCO3)CC1 [Example 211, 4-(1,3-Benzodioxol-5-ylmethyl)-N-pyrazin-2-ylpiperazine-1-carboxamide]
6.30	5.10	O=C(Nc1cnccn1)N1CCN(Cc2ccc(Br)cc2)CC1 [Example 212, 4-(4-Bromobenzyl)-N-pyrazin-2-ylpiperazine-1-carboxamide]
7.00	6.49	O=C(Nc1cnccn1)N1CCN(Cc2ccc3ccccc3c2)CC1 [Example 213, 4-(Naphthalen-2-ylmethyl)-N-pyrazin-2-ylpiperazine-1-carboxamide]
7.82	7.05	O=C(Nc1cnccn1)N1CCN(Cc2cccc(Oc3ccc(OCC(F)(F)F)cc3)c2)CC1 [Example 214, N-Pyrazin-2-yl-4-{3-[4-(2,2,2-trifluoroethoxy)phenoxy]benzyl}-piperazine-1-carboxamide]
9.00	7.52	O=C(Nc1cnccn1)N1CCN(Cc2cccc(Oc3ccc(C(F)(F)F)cc3)c2)CC1 [Example 215, N-Pyrazin-2-yl-4-{3-[4-(trifluoromethyl)phenoxy]benzyl}piperazine-1-carboxamide]
< 5.00	< 5.00	O=C(Nc1cnccn1)N1CCN(Cc2ccc3[nH]ccc3c2)CC1 [Example 216, 4-(1H-Indol-5-ylmethyl)-N-pyrazin-2-ylpiperazine-1-carboxamide]
6.82	6.60	O=C(Nc1cnccn1)N1CCN(Cc2ccc(Br)c(Br)c2)CC1 [Example 217, 4-(3,4-Dibromobenzyl)-N-pyrazin-2-ylpiperazine-1-carboxamide]
6.77	6.15	O=C(Nc1cnccn1)N1CCN(Cc2cc3ccccc3s2)CC1 [Example 218, 4-(1-Benzothiophen-2-ylmethyl)-N-pyrazin-2-ylpiperazine-1-carboxamide]
6.49	6.37	O=C(Nc1cnccn1)N1CCN(Cc2ccc(Cl)c(Cl)c2)CC1 [Example 220, 4-(3,4-Dichlorobenzyl)-N-pyrazin-2-ylpiperazine-1-carboxamide]
8.52	7.30	O=C(Nc1cnccn1)N1CCN(Cc2cccc(Oc3ccc(Br)cc3)c2)CC1 [Example 221, 4-[3-(4-Bromophenoxy)benzyl]-N-pyrazin-2-ylpiperazine-1-carboxamide]
6.15	6.22	O=C(Nc1cnccn1)N1CCN(Cc2ccc(Br)c(F)c2)CC1 [Example 222, 4-(4-Bromo-3-fluorobenzyl)-N-pyrazin-2-ylpiperazine-1-carboxamide]
5.40	< 5.00	O=C(Nc1cnccn1)N1CCN(Cc2cnc3ccccc3c2)CC1 [Example 224, N-Pyrazin-2-yl-4-(quinolin-3-ylmethyl)piperazine-1-carboxamide]
7.37	6.27	O=C(Nc1cnccn1)N1CCN(Cc2cccc(Oc3cccc(Cl)c3)c2)CC1 [Example 225, 4-[3-(3-Chlorophenoxy)benzyl]-N-pyrazin-2-ylpiperazine-1-carboxamide]
